Results published in patent US9809586B2, “Inhibitors of collagen prolyl 4-hydroxylase” (WISCONSIN ALUMNI RESEARCH FOUNDATION, priority 2015, dated 2017).
Each block holds one compound with its values, some of them ahead of it.

Legend:
[1] = Assay of Fe(II)-affinity for biheteroaryl ligands (Fe20-EC50 titration, spectrophotometry); type: physicochemical
Method: A library of biheteroaryl compounds (FIG. 2) was prepared and evaluated them as iron chelators in vitro. The library was assembled either from commercial vendors (pypyr and pyim) or by synthesis using palladium-catalyzed cross-coupling reactions (pypyraz, pypyrid, pyox, and pythi). To evaluate the iron affinity of these compounds in vitro, titration experiments were performed to determine the half-maximal concentration required to form a complex with 20 μM Fe(II) at pH 7.0.
The affinity of biheteroaryl ligands for Fe(II) was determined comparatively by measuring the half-maximal concentration (EC50) required for binding 20 μM Fe(II) (Fe20-EC50) in sodium phosphate buffer at pH 7. Stock solutions of ligands were prepared in either water for high affinity ligands (typically Fe20-EC50<1 mM) or DMSO for low affinity ligands (typically Fe20-EC50>1000 μM). Stock solutions of FeSO4 were prepared in H2O and used within 3 hours of preparation. […] For high affinity ligands, solutions were allowed to equilibrate for 15 min, after which the absorbance was recorded at the λmax for the complex under study. For most low affinity ligands, the corresponding Fe(II) complexes were unstable and observed to dissociate over time. Therefore, the absorbance value was determined within 30 s of mixing, where the absorbance was measured at the λmax for the complex under study. Complexes with pyox were not observed under these conditions. Absorbance values were corrected by subtracting the absorbance value in the absence of ligand. Dose-response curves were generated for each ligand by plotting the absorbance versus the log of the ligand concentration. Fe20-EC50 values for each ligand were interpolated from the dose-response curves by non-linear regression using the sigmoidal dose-response function in Prism. All experiments were performed in triplicate.

[2] = conjugate acid of pyridine (bipy) or the nonpyridyl ring; cited from earlier work
HEK293T cells = test: Effect on iron metabolism (immunoblots for ferritin, TfR, HIF-1α) in HEK293T cells; type: cell-based, human; conditions: for Level of TFR, HIF-1α, or ferritin: HEK cells, diethyl pyimDC at low levels; for Iron deficient phenotype: HEKs, 100 μM, details in Vasta et al. 2015
Method: (§1) MDA-MB-231 or HEK293T cells were plated at 50,000 cells/well into 12-well plates and grown to confluence (˜24 h) as described in Section X. The cells were washed, and the medium was replaced with 1.0 mL of serum-free medium. Stock solutions of all test compounds were prepared at 100× in DMSO and added to a final concentration of 1× (0.1-0.5 mM). After addition of the test compound or DMSO vehicle, cells were incubated for 24 h. The cells were then washed with 100 μL MPER solution from Thermo Fisher Scientific (Waltham, Mass.) and collected. Protein concentrations were determined by BCA assay (Thermo Fisher Scientific), and samples corresponding to 40 μg total protein were analyzed by immunoblot.
(§2) For all immunoblot analyses, protein samples where boiled in SDS-PAGE buffer, separated by electrophoresis through a Tris-glycine SDS-PAGE gel from Bio-Rad Laboratories (Hercules, Calif.), and subsequently transferred to a PVDF membrane for immunoblotting. All primary antibodies were used at the working dilution specified by the manufacturer. Primary antibodies were visualized using a complementary secondary antibody fused to horseradish peroxidase (HRP), with detection of HRP by chemiluminescence, imaging using an ImageQuant LAS 4000 (GE Healthcare), and quantification by densitometry (ImageJ software). The anti-rabbit antibody from Promega and the anti-mouse antibody from Abbiotec (San Diego, Calif.) were used at the working dilution specified by the manufacturer.
(§3) For investigations of iron metabolism, protein samples (40 μg) were separated by SDS-PAGE through a 12% w/v acrylamide gel, and blots were probed with primary antibodies to human ferritin (rabbit monoclonal) from Abcam (Cambridge, Mass.), human transferrin receptor (mouse monoclonal) from Invitrogen, human HIF-1α (mouse monoclonal) from BD Biosciences, and human β-actin (rabbit monoclonal) from Cell Signaling Technology (Danvers, Mass.). Quantifications were normalized to the signal from β-actin, after which treated samples were compared to vehicle-treated controls.

[3] = Estimate of pKa by potentiometric titration; type: physicochemical; conditions: water; conjugate acid, estimated by titration of the entire compound
Method: The pKa value of biheteroaryl compounds was estimated with potentiometric titration. Compounds (5-10 mM) were dissolved in water and the pH was adjusted to ˜12 by adding 10 M NaOH. The pH of the solution was recorded with an Accumet™ XL500 pH meter equipped with an Orion 912600® pH electrode from Thermo Fisher Scientific while titrating the solution with HCl (1 M or […], as necessary) until a pH value of ˜1.75 was achieved. Titration curves were prepared by plotting the solution pH versus the volume of 1 M HCl added, and pKa values were estimated from derivative plots of the titration curves using Prism software.

MDA-MB-231 cells [4] = test: Cytotoxicity assay (MTS); type: cell-based; conditions: MDA-MB-231, 24 h; higher than aqueous solubility limit
Method: The toxicity of esterified biheteroaryl compounds for human breast cancer cells was evaluated with the CellTiter 96® AQueous One Solution Cell Proliferation Assay (MTS) from Promega (Madison, Wis.). Briefly, MDA-MB-231 cells grown as described in Section X were plated at a concentration of 5,000 cells/well in a clear 96-well plate. The cells were allowed to adhere for 4 h, after which the medium was removed and discarded. Fresh medium was added and the cells were treated with varying concentrations of the test compound at 37° C. for 24 h. The medium was removed, and cells were washed with Dulbecco's PBS. The MTS reagent was added at a ratio of 1:5, and the cells were incubated at 37° C. for 2 h before measuring the absorbance at 490 nm. The average absorbance was measured in triplicate for each concentration tested, and the entire experiment was repeated in duplicate. The percentage of viable cells was determined by normalizing to a PBS control (100% viable), and a H2O2 control (0% viable). For all of the compounds tested, the LD50-value could not be measured due to its being higher than the aqueous solubility limit: diethyl bipy55′DC, LD50>100 μM; diethyl pyimDC, LD50>1000 μM; diethyl pythiDC, LD50>500 μM.

P4HA1 = test: Effect on P4HA1 levels (immunoblot); type: cell-based, human; conditions: MDA-MB-231
Method: For investigations of P4HA1 levels, protein samples were treated and quantified as described above for iron metabolism except that the blots were probed with primary antibodies to human P4HA1 (rabbit polyclonal) from Thermo Fisher Scientific and human β-actin.

MDA-MB-231 cells [5] = test: Effect on secretion of type I collagen into conditioned media; type: cell-based, human; conditions: for Efficacy on collagen secretion compared with diethyl bipy55′DC: MDA-MB-231; for Level of secreted type I collagen: MDA-MB-231, 48 h, conditioned media
Method: For investigations of collagen secretion, protein samples were separated by SDS-PAGE through a 7.5% w/v acrylamide gel. Blots were first stained for total protein using Ponceau S, after which they were probed with a primary antibody to human type-I collagen (α1) (rabbit polyclonal) from Novus Biologicals (Littleton, Colo.).
After the addition of a test compound or vehicle (DMSO), cells were incubated for 48 h, after which 1.0 mL of conditioned medium was removed and added to 4.0 mL of chilled acetone (−20° C.). The resultant mixtures were incubated for 3 h at −20° C., after which the precipitated protein was pelleted by centrifugation at 10,000 g for 30 min. The supernatants were discarded and the pellets dried briefly in a fume hood. Pellets were stored at −20° C. prior to analysis with an immunoblot.

IRPs = test: Electrophoretic mobility shift assay for IRE-binding by IRPs from treated cells; type: cell-based, human; conditions: treated MDA-MB-231 cells, 24 h, radiolabeled RNA ligand
Method: The resultant pellets (˜50 μL) were washed with PBS and then lysed using a protocol described previously.^41 Briefly, cell pellets were resuspended in 200 μL of cell lysis buffer, which was 20 mM Hepes-HCl buffer, pH 7.4, containing sodium pyrophosphate (10 mM), sodium fluoride (50 mM), β-glycerophosphate (50 mM), EDTA (5 mM), GTP (1 mM), sodium orthovanadate (1 mM), benzamidine hydrochloride (2 mM), Nonidet NP-40 (0.5% v/v), p-nitrophenyl p′-guanidinobenzoate-HCl (25 μg/mL), DTT (1 mM), leupeptin (40 μg/mL), pepstatin (4 μg/mL), SBTI (100 μg/mL), MG132 (10 μM), PMSF (200 μM), and BHT (5 μg/mL) by vortexing and lysed on ice by vortexing every few min. After 15 min, the lysates were centrifuged at 14,000 rpm and the supernatants aliquoted and stored at −80° C. until analysis by an electrophoretic mobility shift assay (EMSA).
EMSAs were performed and quantified essentially as described previously.^42 Briefly [^32P]-L-ferritin IRE (1 nM RNA, specific radioactivity ˜7,000 dpm/fmol) was incubated with lysate protein (2.5 μg as determined by the Bradford assay) in binding buffer for 10 min on ice. Heparin was added (to 0.5 mg/mL), and the reaction mixture was incubated for an additional 5 min on ice before separating bound and free RNA on a nondenaturing polyacrylamide gel at ambient temperature.

[6] = tested on: MDA-MB-231 breast cancer cells; test: Effect on iron metabolism (immunoblots for ferritin, TfR, HIF-1α) in MDA-MB-231 cells; conditions: for Concentration at which no iron-deficient phenotype is observed / Iron-deficiency phenotype of treated cells: MDA-MB-231, 24 h; for Iron-deficiency phenotype of treated cells: EDHB 500 μM, diethyl pythiDC up to 500 μM; for Iron deficient phenotype: MDA-MB-231 (231s), 100 μM, details in Vasta et al. 2015
Method: as §1, §2, §3

human CP4H1 = target: T1, human CP4H1 (Homo sapiens, UniProt P13674); test: Assay of human CP4H1 activity in the presence of inhibitors; type: biochemical; conditions: 10 μM compound, 50 μM FeSO4
T1 construct: made in house; host or cells: Origami B(DE3) Escherichia coli
T1 sequence (P13674 18-534): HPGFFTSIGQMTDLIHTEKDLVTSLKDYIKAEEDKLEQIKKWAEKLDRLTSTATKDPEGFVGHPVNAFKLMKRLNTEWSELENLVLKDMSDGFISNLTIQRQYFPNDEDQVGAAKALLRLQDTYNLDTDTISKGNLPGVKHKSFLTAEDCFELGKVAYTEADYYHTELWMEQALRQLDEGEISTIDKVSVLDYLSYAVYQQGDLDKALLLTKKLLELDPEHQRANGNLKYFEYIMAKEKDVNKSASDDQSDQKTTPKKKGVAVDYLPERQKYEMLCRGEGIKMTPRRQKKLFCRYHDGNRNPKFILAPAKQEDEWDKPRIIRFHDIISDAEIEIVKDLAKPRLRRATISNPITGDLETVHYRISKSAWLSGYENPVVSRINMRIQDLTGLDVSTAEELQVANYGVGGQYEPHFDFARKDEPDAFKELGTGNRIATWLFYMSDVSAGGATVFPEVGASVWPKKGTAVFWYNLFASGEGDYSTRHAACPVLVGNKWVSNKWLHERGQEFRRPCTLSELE
T1 sequence (P07237 18-508 partner): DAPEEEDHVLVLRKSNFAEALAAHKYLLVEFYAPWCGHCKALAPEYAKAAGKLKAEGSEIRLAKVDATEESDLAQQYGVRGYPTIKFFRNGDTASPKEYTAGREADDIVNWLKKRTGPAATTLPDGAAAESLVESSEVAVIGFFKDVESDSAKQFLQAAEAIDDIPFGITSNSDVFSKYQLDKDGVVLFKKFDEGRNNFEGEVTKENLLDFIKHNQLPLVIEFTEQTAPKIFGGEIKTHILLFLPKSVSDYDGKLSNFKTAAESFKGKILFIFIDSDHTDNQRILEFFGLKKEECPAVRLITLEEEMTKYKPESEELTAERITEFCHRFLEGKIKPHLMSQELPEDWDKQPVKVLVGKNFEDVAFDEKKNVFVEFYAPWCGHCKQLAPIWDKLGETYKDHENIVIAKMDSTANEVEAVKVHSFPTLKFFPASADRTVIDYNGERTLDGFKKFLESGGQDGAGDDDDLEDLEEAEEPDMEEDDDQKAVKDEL
Method: The catalytic activity of human CP4H1 was assayed as described previously.^35 Briefly, activity assays were carried out at 30° C. in 100 μL Tris-HCl buffer, pH 7.8, containing human CP4H1 (100 nM), inhibitor (0-500 μM), substrate (dansylGlyProProGlyOEt, 500 μM), FeSO4 (50 μM), BSA (1 mg/mL), catalase (0.1 mg/mL), sodium ascorbate (2 mM), DTT (100 μM), and α-ketoglutarate (100 μM). Reactions were pre-incubated with or without inhibitor for 2 min at 30° C., after which the reaction was initiated by the addition of α-ketoglutarate. After 15 min, reactions were quenched by boiling for 45 s and centrifuged at 10,000 g. The supernatant (20-50 μL) was injected into a Nucleodur® C18 Gravity reversed-phase column (4.6×250 mm, 5 μm particle size) from Macherey-Nagel (Bethlehem, Pa.). The column was eluted at 1 mL/min with a gradient (20 min) of aqueous acetonitrile (20-45% v/v) containing 0.1% v/v TFA. The absorbance of the eluent was monitored at 289 nm. All assays were performed in triplicate. Data are reported as activity relative to control reactions lacking inhibitor, where catalytic activity is determined from the percent conversion of substrate to product. Dose-response curves were generated for each inhibitor by plotting the relative activity versus the log of the inhibitor concentration. IC50-values for each inhibitor were interpolated from the data by non-linear regression using the sigmoidal dose-response function available in Prism.

[7] = titration of 20 μM FeSO4, pH 7, mean (±SE) of three replicates

EC50 [1, 7]: 5100 ± 100 µM
Level of TFR, HIF-1α, or ferritin (HEK293T cells): did not affect
pKa [3]: < 3
SMILES: c1ccc(-c2nccs2)nc1 [pythi, 2-(Thiazol-2-yl)pyridine]
Heteroaryl pKa (ref.) [2]: 2.5 (53)

EC50 [1, 7]: 124 ± 1 µM
pKa [3]: < 3
SMILES: c1ccc(-c2cccnn2)nc1 [pypyrid]
Heteroaryl pKa (ref.) [2]: 2.3 (49)

EC50 [1, 7]: > 18000 µM
pKa [3]: < 3
SMILES: c1ccc(-c2ncco2)nc1 [pyox, 2-(Oxazol-2-yl)pyridine]
Heteroaryl pKa (ref.) [2]: 0.8 (54)

EC50 [1, 7]: 2250 ± 100 µM
pKa [3]: 4.1
SMILES: c1ccc(-c2cc[nH]n2)nc1 [pypyr, 2-(1H-pyrazol-3-yl)pyridine, reference compound]
Heteroaryl pKa (ref.) [2]: 2.5 (52)

Inhibition of catalytic activity of human CP4H1 in initial screen (human CP4H1): modest activation
SMILES: O=C(O)c1ccc(-c2ccc(C(=O)O)nn2)nc1 [pypyridDC, 6-(5-Carboxypyridin-2-yl)pyridazine-3-carboxylic Acid]

EC50 [1, 7]: 400 ± 7 µM
pKa [3]: < 3
SMILES: c1ccc(-c2cnccn2)nc1 [pypyraz, 2-(Pyridin-2-yl)pyrazine]
Heteroaryl pKa (ref.) [2]: 0.8 (50)

Inhibition of catalytic activity of human CP4H1 in initial screen (human CP4H1): modest activation
SMILES: O=C(O)c1ccc(-c2cc(C(=O)O)[nH]n2)nc1 [pypyrDC, 2-(5-Carboxy-1H-pyrazol-3-yl)pyridine-5-carboxylic Acid]

Further lines, the compound ahead of its results:

SMILES: CCOC(=O)c1ccc(-c2ncc(C(=O)OCC)s2)nc1 [diethyl pythiDC, Ethyl 2-(5-ethoxycarbonylthiazol-2-yl)pyridine-5-carboxylate]
LD50 (MDA-MB-231 cells [4]): > 500 µM
Levels of human CP4H1 (P4HA1) itself (P4HA1): did not appear to affect
Level of TFR, HIF-1α, or ferritin (HEK293T cells): did not affect
Efficacy on collagen secretion compared with diethyl bipy55′DC (MDA-MB-231 cells [5]): indistinguishable
Level of secreted type I collagen (MDA-MB-231 cells [5]): reduced the level of secreted collagen significantly
RNA binding by IRPs (IRPs): did not
Concentration at which no iron-deficient phenotype is observed [6]: ≤ 500 µM
Iron-deficiency phenotype of treated cells [6]: normal

SMILES: CCOC(=O)c1ccc(-c2ncc(C(=O)OCC)[nH]2)nc1 [diethyl pyimDC, Ethyl 2-(5-ethoxycarbonyl-1H-imidazol-2-yl)pyridine-5-carboxylate]
LD50 (MDA-MB-231 cells [4]): > 1000 µM
EC50 ([1]; Fe(II) 20 μM, highest concentration tested, not saturated): > 600 µM
Levels of human CP4H1 (P4HA1) itself (P4HA1): did not appear to affect
Level of TFR, HIF-1α, or ferritin (HEK293T cells): did not affect
Efficacy on collagen secretion compared with diethyl bipy55′DC (MDA-MB-231 cells [5]): indistinguishable
Level of secreted type I collagen (MDA-MB-231 cells [5]): reduced the level of secreted collagen significantly
RNA binding by IRPs (IRPs): did not
Accumulation of TFR or HIF-1α ([6]; MDA-MB-231): without an associated accumulation
Concentration at which no iron-deficient phenotype is observed [6]: ≤ 56 µM
Iron-deficiency phenotype of treated cells [6]: intermediate phenotype
Ferritin levels ([6]; MDA-MB-231, above 56 μM): significant decrease

SMILES: Cn1c(C(=O)O)cnc1-c1ccc(C(=O)O)cn1 [NMe-pyimDC, 2-(5-Carboxy-1-methyl-1H-imidazol-2-yl)pyridine-5-carboxylic Acid]
Inhibition of catalytic activity of human CP4H1 in initial screen (human CP4H1): potency is less than that of pyimDC

SMILES: CCOC(=O)c1ccc(-c2ccc(C(=O)OCC)cn2)nc1 [diethyl bipy55′DC, Diethyl 2,2′-bipyridine-5,5′-dicarboxylate, reference compound]
LD50 (MDA-MB-231 cells [4]): > 100 µM
Iron deficient phenotype (HEK293T cells): did not cause iron deficiency
Iron deficient phenotype [6]: did not cause iron deficiency

SMILES: CCOC(=O)c1ccnc(-c2cc(C(=O)OCC)ccn2)c1 [diethyl bipy44′DC, reference compound]
Iron deficient phenotype (HEK293T cells): distinct iron deficient phenotype
Iron deficient phenotype [6]: distinct iron deficient phenotype

SMILES: CCOC(=O)c1ccc(-c2cc(C(=O)OCC)ccn2)nc1 [diethyl bipy45′DC, Diethyl 2,2′-bipyridine-4,5′-dicarboxylate, reference compound]
Iron deficient phenotype (HEK293T cells): did not cause iron deficiency
Iron deficient phenotype [6]: did not cause iron deficiency

SMILES: c1ccc(-c2ncc[nH]2)nc1 [pyim, 2-(1H-Imidazol-2-yl)pyridine, reference compound]
EC50 [1, 7]: 900 ± 30 µM
Heteroaryl pKa (ref.) [2]: 7.1 (51)
Level of TFR, HIF-1α, or ferritin (HEK293T cells): did not affect
pKa [3]: 5.4
